Reference: US10494417B2, “Peptide inhibitors of BCR-ABL oligomerization” (University of Utah Research Foundation, priority 2014, dated 2019)
Entries after “also recorded” stand apart in the source; their conditions may differ.

How the values were obtained:
Ba/F3-P210 cells = assay: Viability of transfected Ba/F3-p210 cells (trypan blue exclusion); assay type: cell-based, mouse; details: 72 h following transfection, vs mCherry control, n=1
Method: Two days following cell passaging, 3.0×10^6 cells were collected by centrifugation at 750×g for 10 min for each transfection group. Following collection, 4 μg DNA was transfected into cells according to the Cell Line Nucleofector® Kit V protocol (program X-001) using the Amaxa Nuelcofector II. Following nucleofection, the DNA/cell mixture was added to 500 μL plain RPMI and incubated for 20 min. After incubation, the 500 μL cell/DNA/RPMI mixture was added to complete RPMI 1640 media and allowed to incubate at 37° C. for 72 h until analysis.
(§1) Forty-eight or 72 h following transfection, 100 μL of treated K562 or Ba/F3-p210 cells was mixed with 100 μL trypan blue solution (Life Technologies). The numbers of viable cells (those impermeable to the trypan blue dye) from four different quadrants in an INCYTO™ C-CHIP™ Neubauer hemacytometer (VWR International, Radnor, Pa., USA) were counted using a standard light microscope. Quadrant counts were then averaged to obtain the number of viable cells per mL. For experiments using the Helix2mut3 construct, counts were performed on one aliquot per transfection (n=3 in replicate). In experiments involving the CappedHelix2mut3 construct, counts were performed three times using separate 100 pt aliquots from one transfection (n=1 in triplicate).

K562 cells [1] = assay: Proliferation/viability of transfected K562 cells (trypan blue exclusion); assay type: cell-based, human; details: 72 h following transfection, trypan blue exclusion, vs mCherry control, n=1
Method: K562 cells, human leukemia Bcr-Abl^+ cells (gifted from Kojo Elenitoba-Johnson, University of Michigan), were grown in RPMI 1640 media supplemented with 10% FBS, 1% penicillin-streptomycin-glutamine, and 0.1% gentamicin (complete medium). […] Transfections were carried out two days following cell passaging. Then, 2.0×10^6 cells were collected and transfected with 6 μg pf pEGFP, pEGFP-CC^mut3, pmCherry, or pmCherry-CC^mut3 according to the Cell Line Nucleofector Kit V protocol, program T-013, using the Amaxa Nucleofector II (Lonza Group, Basel, Switzerland).
Cell counts were performed using a standard light microscope.
Two days following cell passaging, 2.0×10^6 cells were collected by centrifugation at 500×g for 10 min for each transfection group. Following cell collection, 6 lig DNA (pEGFP, pEGFP-CC, pEGFP-CCmut3, pEGFP-Helix2WT, pEGFP-Helix2mut3, pmCherry, pmCherry-CCmut3, or pmCherry-CappedHelix2mut3) was transfected into cells according to the Cell Line Nucleofector® Kit V protocol (program T-013) using the Amaxa Nucleofector II (Lonza Group, Basel, Switzerland). Following transfection, the DNA/cell mixture was added to 10 mL Complete RPMI 1640 media and allowed to incubate at 37° C. for 24, 48, or 72 h until analysis, depending on the assay.
as §1

[2] = system: Ba/F3 cells expressing native BCR-ABL1 (Ba/F3-p210); assay: Colony forming assay of transfected Ba/F3-p210 cells; assay type: cell-based, mouse; details: cappedHelix2mut3 study, n=1, data not shown
Method: (§2) Briefly, K562 or Ba/F3-p210 cells were transfected according to the protocol above. One day following transfection, 1.0×10^6 cells per transfection group were collected and re-suspended in sterile PBS. […] Finally, 1.1 mL of cell/methylcellulose mixture was seeded in duplicate and allowed to grow at 37° C. and 5% CO2 for 7 days. Colony formation was assessed by counting colonies in two 200 μm2 areas on the plate. Experiments were performed once in duplicate (n=1 in duplicate). All kit reagents and media were purchased from Stem Cell Technologies (Vancouver, BC, Canada).

K562 cells [3] = assay: Colony forming assay of transfected K562 cells; assay type: cell-based, human; details: for colony formation (transformative ability), in words: construct delivered as a gene by transfection, vs EGFP (and WT) control
Method: Both EGFP and EGFP-CC^mut3 were transfected into separate groups of cells on day 0. One day following transfection, 1.0×10^6 cells per treatment group were collected and re-suspended in 1.0 mL of PBS. Through serial dilutions, 1.0×10^3 cells in IMDM (Isocove's modified Dulbecco's media) with 2% FBS were seeded into methylcellulose medium in the absence of cytokines (MethoCult H4230 for K562 cells and MethoCult M3234 for p210 and p210-T315I cells) or in the presence of cytokines (MethoCult GF M3434 for parental Ba/F3 cells). Ponatinib was then added in the correct molar amounts (0, 100 pM, 1 nM, or 10 nM) to the methylcellulose medium. Colonies formed were counted after 7 days of incubation. All reagents were purchased from Stem Cell Technologies, Vancouver, BC, Canada. Assay was run three separate times (n=3) in duplicate.
as §2

[4] = system: CML CD34+ cells expressing BCR-ABL1T315I; assay: Colony forming assay of primary CML CD34+ cells expressing BCR-ABL1T315I (samples R1, R2); assay type: cell-based, human; details: sample R1 (accelerated phase); lentiviral CCmut3 or 10 nM ponatinib vs EV
Method: Mononuclear cells (MNCs) were separated from the peripheral blood of patients with newly diagnosed or therapy-resistant CML with a documented T315I mutation, using Ficoll (Nycomed, Oslo, Norway). Isolation of the CD34^+ fraction was done on an autoMACS Pro (Miltenyi Biotech). […] Cells were infected with lentivirus at a multiplicity of infection (MOI) of 5 for each construct at 24 and 48 hours following harvest (fresh cells) or thaw (frozen cells). Cells were sorted on a BD FACSAria cytometer after 72 h, and GFP-positive cells were returned to culture medium for future experiments. All patients gave their informed consent in accordance with the Declaration of Helsinki, and all studies with human specimens were approved by The University of Utah Institutional Review Board (IRB).
Briefly, lentivirus-infected (GFP^+) cells were isolated by FACS and resuspended in RPMI1640. […] Plates were incubated at 37° C. in a 5% CO2 humidified incubator for 14 days. Colony forming units of granulocyte-macrophage (CFU-GM) were counted on day 14 using an inverted microscope.
All cells were plated with or without the indicated TKI in three or more independent experiments. Plates were incubated at 37° C. in a 5% CO2 humidified incubator. Colonies were counted 7-14 days later in an area of 50 μm2 per dish using an inverted microscope.

[5] = Phase III trial for first-line therapy in CML patients, discontinued; cited from earlier work
[6] = system: CML CD34+ cells expressing BCR-ABL1T315I; assay: Liquid culture of primary T315I CML cells; assay type: cell-based, human; details: CC^mut3 or increasing concentrations of ponatinib (FIG. 28C)
Method: Cell proliferation was assessed using the CellTiter 96® AQueous One Solution Cell Proliferation Assay (MTS assay, Promega) according to manufacturer instructions. Briefly, 5,000 viable cells were added to a single well in 96-well plate in 100 μL RPMI1640. Three independent samples were seeded in duplicate for each time point. […] In some experiments, cell proliferation was assessed using a Neubauer chamber and trypan blue dye exclusion.

[7] = system: CD34+ cells from newly diagnosed CML patients; assay: Colony forming assay of CD34+ cells from newly diagnosed CML patients; assay type: cell-based, human; details: day 14 CFU-GM; lentiviral CCmut3 or 2.5 μM imatinib vs EV
Method: Primary cells were seeded in Methocult H4230 (Stem Cell Technologies) as described previously (Fleischman, A. G., et al. (2011). Blood 118, 6392-6398). Briefly, lentivirus-infected (GFP^+) cells were isolated by FACS and resuspended in RPMI1640. Cells were plated in Methocult H4230 at 1,000 cells/mL supplemented with 1× StemSpan CC100 cytokine mix (StemCell Technologies) with or without TKI as indicated in each experiment. Plates were incubated at 37° C. in a 5% CO2 humidified incubator for 14 days. Colony forming units of granulocyte-macrophage (CFU-GM) were counted on day 14 using an inverted microscope.
Following selection of transfected cells by cell sorting, methylcellulose colony assays were performed by plating in 0.9% methylcellulose (Stem Cell Technologies; M3234 for Ba/F3 BCR-ABL1 native and mutant lines; M3434 for Ba/F3 parental cells; H4230 for CML patient samples). mCherry-positive Ba/F3 cells (1.1×10^3 cells/plate) or GFP-positive primary CML CD34+ cells (1×10^3 cells/plate) were seeded per dish in duplicate. In the case of CML patient samples, cells were plated in the presence of 1× StemSpan CC100 cytokine cocktail (StemCell Technologies). All cells were plated with or without the indicated TKI in three or more independent experiments. Plates were incubated at 37° C. in a 5% CO2 humidified incubator. Colonies were counted 7-14 days later in an area of 50 μm2 per dish using an inverted microscope.

K562 cells [8] = assay: Nuclear (DNA) segmentation apoptosis assay in transfected K562 cells; assay type: cell-based, human; details: 48 h, vs EGFP control
Method: CC^mut3 was then tested for its ability to induce apoptosis in K562 cells. Apoptosis was observed using 3 different methods: 1) nuclear segmentation; 2) induction of the effector Caspase-3/7; and 3) 7AAD/Annexin V staining.
Nuclear segmentation analysis was performed as previously described (16). Briefly, immediately prior to cellular analysis, 2-well live cell chambers were treated for 15 min with poly-L-lysine (Sigma-Aldrich, St. Louis, Mo., USA), to allow cell adhesion in the wells. Forty-eight h following transfection, the transfected K562 cells were transferred to the pretreated 2-well live cell chambers. Cells were incubated for 15 min at 37° C. following the addition of 0.3 μL Hoechst H33342 nuclear stain (Life Technologies, Carlsbad, Calif., USA). Cells were then imaged using an inverted fluorescence microscope (Olympus IX701F, Scientific Instrument Co., Sunnyvale, Calif., USA) equipped with an F-view Monochrome CCD camera. Fields of view were selected based on EGFP fluorescence when viewing using a 40× oil immersion objective. Nuclei from cells that were positively transfected (positive for EGFP fluorescence) were categorized as either healthy (round or kidney-shaped nuclei) or segmented (punctate staining of nuclei), and the percentage of cells with segmented DNA was calculated (n=3 in replicate).

cappedHelix2mut3: residues 27-68: α-helix2 of BCR-ABL CC domain with capping residues S27 and G68 and CCmut3 mutations (SVGDIEQELERAEARIRRDEQRVNQERFRMIYLETLLAKEKG)
proliferation/viability of Ba/F3-p210 cells (Ba/F3-P210 cells): replicated to a similar extent; also recorded: no evidence of BCR-ABL inhibition
proliferation/viability of K562 cells (K562 cells [1]): failed to out-perform the negative control; also recorded: did not display inhibition of cell proliferation; also recorded: no evidence of BCR-ABL inhibition
colony formation [2]: same pattern as in the cell proliferation studies
colony formation (K562 cells [3]; cappedHelix2mut3 study, n=1, data not shown): failed to out-perform the negative control; also recorded: same pattern as in the cell proliferation studies

Cc1ccc(C(=O)Nc2ccc(CN3CCN(C)CC3)c(C(F)(F)F)c2)cc1C#Cc1cnc2cccnn12 [ponatinib, 3-[2-(imidazo[1,2-b]pyridazin-3-yl)ethynyl]-4-methyl-N-{4-[(4-methylpi-perazin-1-yl)methyl]-3-(trifluoromethyl)phenyl}benzamide, reference compound]
reduction of colony formation [4]: 47%
patients with serious side effects [5]: ~12%
effect in liquid culture [6]: no effect

Cc1ccc(NC(=O)c2ccc(CN3CCN(C)CC3)cc2)cc1Nc1nccc(-c2cccnc2)n1 [imatinib, reference compound]
colony formation, in words [7]: equally effective in reducing colony number

helix2 domain: helix2 domain (amino acids 28-67) with the CC^mut3 mutations, delivered as a gene via nucleofection (MELRSVGDIEQELERAEARIRRDEQRVNQERFRMIYLETLLAKEKKSYDR)
colony formation (transformative ability), in words (K562 cells [3]): sufficient to inhibit colony formation in K562 cells

Helix2mut3: residues 23-72: α-helix2 of BCR-ABL CC domain plus five flanking residues each end, with CCmut3 mutations (MELRSVGDIEQELERAEARIRRDEQRVNQERFRMIYLETLLAKEKKSYDR)
induction of apoptosis (nuclear/DNA segmentation) (K562 cells [8]): outperformed negative control EGFP; also recorded: statistically significant increase in apoptosis; also recorded: apoptosis was induced to a similar extent between both CCmut3 and Helix2mut3; also recorded: significantly induced apoptosis
colony formation, of EGFP control (K562 cells [3]; 7 days after seeding, normalized to EGFP control, n=1 in duplicate): approximately 67%
colony formation (transformative ability), in words (K562 cells [3]): outperformed negative control EGFP; also recorded: showed inhibitory activity; also recorded: prevented outgrowth of colonies to a greater extent than the EGFP control, however, not as well as the full length CCmut3
